Source: US11840686B2, “Modulation of prekallikrein (PKK) expression” (Ionis Pharmaceuticals, Inc., priority 2013, dated 2023)
Strand notation (5' to 3'): a small letter for the sugar, then the base; units joined by * are phosphorothioate-linked, units joined directly phosphodiester-linked; [ ] holds rarer units or linkages, { } end groups; capitals alone tell only the bases. e = 2'-O-(2-methoxyethyl) (MOE); [5mC] = 5-methylcytosine; d = 2'-deoxy (DNA)

Key:
human PKK mRNA [1] = assay: Dose-dependent antisense inhibition of human PKK in HepaRG cells, 0.19-5.00 uM (Example 5); type: cell-based; conditions: for percent inhibition of PKK mRNA, 0.19 μM: 0.19 μM antisense oligonucleotide; for percent inhibition of PKK mRNA, 0.56 μM: 0.56 μM antisense oligonucleotide; for percent inhibition of PKK mRNA, 1.67 μM: 1.67 μM antisense oligonucleotide; for percent inhibition of PKK mRNA, 5.00 μM: 5.00 μM antisense oligonucleotide
Summary of the method: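 PKK mRNA knockdown was measured by real-time PCR (primer probe set RTS3454) about 16 h after electroporating 20,000 HepaRG cells per well with oligonucleotide at four doses from 0.19 to 5.00 μM. Levels were adjusted to RIBOGREEN-measured total RNA, and IC50 values were calculated.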

human PKK mRNA [2] = assay: Antisense inhibition of human PKK mRNA in HepaRG cells, 5,000 nM (Example 2); type: cell-based; conditions: human PKK mRNA in HepaRG cells, 5-10-5 gapmers
Summary of the method: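 qRT-PCR (RTS3454) read-out, RIBOGREEN-normalized; % inhibition vs untreated cells. HepaRG, 20,000 cells/well, electroporation, 5,000 nM ASO, ~24 h.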

[3] = HepaRG cells, electroporation, approximately 16 hours, Table 37
[4] = HepaRG cells, electroporation, approximately 16 hours, Table 38
[5] = 4 point dose response, HepaRG cells, Table 38
[6] = HepaRG cells, electroporation, approximately 16 hours, Table 41
[7] = 4 point dose response, HepaRG cells, Table 41
[8] = Table 34, HepaRG, electroporation, ~16 h
[9] = HepaRG cells, electroporation, approximately 16 hours, Table 35

Substance: 547575 (eG*eG*eG*eA*eA*dA*d[5mC]*dT*d[5mC]*dT*dT*dT*d[5mC]*d[5mC]*dT*e[5mC]*eG*e[5mC]*e[5mC]*e[5mC]; antisense) [compound 547575]
- percent inhibition of PKK at 0.19 μM (human PKK mRNA [1]; [3]): 0%
- percent inhibition of PKK at 0.56 μM (human PKK mRNA [1]; [3]): 34%
- percent inhibition of PKK at 1.67 μM (human PKK mRNA [1]; [3]): 82%
- percent inhibition of PKK at 5.00 μM (human PKK mRNA [1]; [3]): 93%
- IC50 (human PKK mRNA [1]; 4 point dose response, HepaRG cells, Table 37): 1100 nM
- % inhibition (human PKK mRNA [2]; Table 13): 89%

Substance: 547584 (eG*eT*eA*eT*e[5mC]*dA*d[5mC]*dT*dG*dT*d[5mC]*d[5mC]*dT*dA*dT*eA*eT*e[5mC]*eA*e[5mC]; antisense) [compound 547584]
- percent inhibition of PKK at 0.19 μM (human PKK mRNA [1]; [4]): 26%
- percent inhibition of PKK at 0.56 μM (human PKK mRNA [1]; [4]): 34%
- percent inhibition of PKK at 1.67 μM (human PKK mRNA [1]; [4]): 76%
- percent inhibition of PKK at 5.00 μM (human PKK mRNA [1]; [4]): 86%
- IC50 (human PKK mRNA [1]; [5]): 700 nM
- percent inhibition of PKK mRNA, 0.19 μM (human PKK mRNA [1]; HepaRG cells): 0%
- percent inhibition of PKK mRNA, 0.56 μM (human PKK mRNA [1]; HepaRG cells): 21%
- percent inhibition of PKK mRNA, 1.67 μM (human PKK mRNA [1]; HepaRG cells): 64%
- percent inhibition of PKK mRNA, 5.00 μM (human PKK mRNA [1]; HepaRG cells): 92%
- IC50 (human PKK mRNA [1]; HepaRG cells, 0.19-5.00 μM): 1300 nM
- % inhibition (human PKK mRNA [2]; Table 14): 85%

Substance: 547585 (eA*eA*e[5mC]*eA*eG*dT*dA*dT*d[5mC]*dA*d[5mC]*dT*dG*dT*d[5mC]*e[5mC]*eT*eA*eT*eA; antisense) [compound 547585]
- percent inhibition of PKK at 0.19 μM (human PKK mRNA [1]; [4]): 42%
- percent inhibition of PKK at 0.56 μM (human PKK mRNA [1]; [4]): 57%
- percent inhibition of PKK at 1.67 μM (human PKK mRNA [1]; [4]): 70%
- percent inhibition of PKK at 5.00 μM (human PKK mRNA [1]; [4]): 95%
- IC50 (human PKK mRNA [1]; [5]): 400 nM
- percent inhibition of PKK mRNA, 0.19 μM (human PKK mRNA [1]; HepaRG cells): 0%
- percent inhibition of PKK mRNA, 0.56 μM (human PKK mRNA [1]; HepaRG cells): 46%
- percent inhibition of PKK mRNA, 1.67 μM (human PKK mRNA [1]; HepaRG cells): 89%
- percent inhibition of PKK mRNA, 5.00 μM (human PKK mRNA [1]; HepaRG cells): 93%
- IC50 (human PKK mRNA [1]; HepaRG cells, 0.19-5.00 μM): 800 nM
- % inhibition (human PKK mRNA [2]; Table 14): 85%

Substance: 547587 (e[5mC]*eT*eA*eT*eA*dA*d[5mC]*dA*dG*dT*dA*dT*d[5mC]*dA*d[5mC]*eT*eG*eT*e[5mC]*e[5mC]; antisense) [compound 547587]
- percent inhibition of PKK at 5.00 μM (human PKK mRNA [1]; [6]): 97%
- percent inhibition of PKK at 0.19 0μM (human PKK mRNA [1]; [6]): 38%
- percent inhibition of PKK at 0.56 0μM (human PKK mRNA [1]; [6]): 64%
- percent inhibition of PKK at 1.67 1μM (human PKK mRNA [1]; [6]): 91%
- IC50 (human PKK mRNA [1]; [7]): 300 nM
- percent inhibition of PKK at 0.19 μM (human PKK mRNA [1]; [8]): 20%
- percent inhibition of PKK at 0.56 μM (human PKK mRNA [1]; [8]): 62%
- percent inhibition of PKK at 1.67 μM (human PKK mRNA [1]; [8]): 84%
- percent inhibition of PKK at 5.00 μM (human PKK mRNA [1]; [8]): 86%
- IC50 (human PKK mRNA [1]; Table 34, PKK mRNA, HepaRG, electroporation, ~16 h): 500 nM
- % inhibition (human PKK mRNA [2]; Table 14): 96%

Substance: 547602 (antisense eT*e[5mC]*eA*e[5mC]*eT*dG*dT*dA*d[5mC]*d[5mC]*dT*dA*dT*dA*dA*e[5mC]*eT*e[5mC]*eT*eA) [compound 547602]
- percent inhibition of PKK at 0.19 μM (human PKK mRNA [1]; [9]): 18%
- percent inhibition of PKK at 0.56 μM (human PKK mRNA [1]; [9]): 53%
- percent inhibition of PKK at 1.67 μM (human PKK mRNA [1]; [9]): 92%
- percent inhibition of PKK at 5.00 μM (human PKK mRNA [1]; [9]): 87%
- percent inhibition of PKK at 5.00 μM (human PKK mRNA [1]; [6]): 93%
- percent inhibition of PKK at 0.19 0μM (human PKK mRNA [1]; [6]): 1%
- percent inhibition of PKK at 0.56 0μM (human PKK mRNA [1]; [6]): 9%
- percent inhibition of PKK at 1.67 1μM (human PKK mRNA [1]; [6]): 52%
- IC50 (human PKK mRNA [1]; 4 point dose response, HepaRG cells, Table 35): 500 nM
- IC50 (human PKK mRNA [1]; [7]): 1400 nM
- % inhibition (human PKK mRNA [2]; Table 14): 93%

Substance: 547615 (antisense eT*e[5mC]*e[5mC]*eT*eA*dT*dA*dT*d[5mC]*dA*d[5mC]*dT*dG*dT*dA*e[5mC]*e[5mC]*eT*eG*eT) [compound 547615]
- percent inhibition of PKK at 0.19 μM (human PKK mRNA [1]; [4]): 20%
- percent inhibition of PKK at 0.56 μM (human PKK mRNA [1]; [4]): 26%
- percent inhibition of PKK at 1.67 μM (human PKK mRNA [1]; [4]): 41%
- percent inhibition of PKK at 5.00 μM (human PKK mRNA [1]; [4]): 84%
- IC50 (human PKK mRNA [1]; [5]): 1400 nM
- % inhibition (human PKK mRNA [2]; Table 14): 84%
